Experimental data reported in patent publication US20100113776A1, “PYRAZOLE DERIVATIVE” (TAISHO PHARMACEUTICAL CO.,LTD., priority 2006, published 2010).

How the values were obtained:
human H3 receptor [1] = biological target: T1, human H3 receptor (Homo sapiens, UniProt Q9Y5N1); experiment: [35S]GTP-γ-S binding test; type: biochemical; settings: human H3 receptor membrane preparation; 100 μM R(−)-α-methylhistamine; 0.2 nM [35S]GTP-γ-S; 30 μM GDP
T1 construct: purchased Euroscreen ES-392-M; host or cells: CHO-K1 cells (recombinant expression)
T1 sequence (Q9Y5N1 whole entry): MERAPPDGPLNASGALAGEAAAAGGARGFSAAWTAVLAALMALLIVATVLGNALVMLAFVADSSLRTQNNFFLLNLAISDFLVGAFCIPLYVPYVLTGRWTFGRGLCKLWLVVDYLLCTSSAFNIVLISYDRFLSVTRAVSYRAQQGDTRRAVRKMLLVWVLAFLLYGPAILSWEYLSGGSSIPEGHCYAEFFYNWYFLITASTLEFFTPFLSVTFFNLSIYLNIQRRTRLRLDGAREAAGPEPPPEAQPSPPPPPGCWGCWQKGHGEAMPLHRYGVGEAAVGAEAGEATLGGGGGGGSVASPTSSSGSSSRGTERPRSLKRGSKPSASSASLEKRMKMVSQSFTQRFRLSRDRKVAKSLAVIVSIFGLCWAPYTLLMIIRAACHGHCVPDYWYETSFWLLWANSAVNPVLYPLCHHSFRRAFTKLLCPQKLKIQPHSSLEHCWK
Description: A human H3 receptor membrane preparation (7.5 μg protein/100 μl), 30 μM GDP, 100 μM R(−)-α-methylhistamine and a test compound were reacted at room temperature for 30 minutes. After completion of the reaction, [^35S]GTP-γ-S (0.2 nM) was added and reacted for an additional 30 minutes. After completion of the reaction, the reaction mixture was subjected to suction filtration through a glass filter (GF/C). The glass filter was washed three times with 20 mM HEPES washing solution (pH 7.4) containing 100 mM sodium chloride and 1 mM magnesium chloride. After washing, the glass filter was dried and a scintillator was added thereto, followed by measurement of radioactivity on the filter using a liquid scintillation counter.
Binding of [^35S]GTP-γ-S in the absence of R(−)-α-methylhistamine was defined as non-specific binding, and the difference between total binding in the presence of R(−)-α-methylhistamine and non-specific binding was defined as specific binding of [^35S]GTP-γ-S. Fixed concentrations of [^35S]GTP-γ-S (0.2 nM) and R(−)-α-methylhistamine (100 μM) were reacted under the above conditions with each test drug at various concentrations to obtain an inhibition curve. The inhibition curve was used to determine the concentration (IC50) of each test drug required for 50% inhibition of [^35S]GTP-γ-S binding.

human H3 receptor [2] = biological target: T1, human H3 receptor; experiment: H3 receptor binding test; settings: membrane preparation of human H3 receptor-expressing CHO-K1 cells; 2 nM R(−)-α-methyl[3H]histamine; room temperature, 1 hour
Description: A membrane preparation of human H3 receptor-expressing CHO—K1 cells (Euroscreen, ES-392-M, 15 μg protein/200 μl), R(−)-α-methyl[^3H]histamine (Amersham, TRK-1017, specific activity: 1.74 TBq/mmol, 2 nM) and a test drug were reacted at room temperature for 1 hour. After completion of the reaction, the reaction mixture was subjected to suction filtration through a 0.3% polyethyleneimine-treated glass filter (GF/C). The glass filter was washed five times with 50 mM Tris-HCl washing solution (pH 7.4) containing 0.1% BSA and 5 mM magnesium chloride. After washing, the glass filter was dried and a scintillator was added thereto, followed by measurement of radioactivity on the filter using a liquid scintillation counter.
Binding of R(−)-α-methyl[^3H]histamine in the presence of 10 μM R(−)-α-methylhistamine was defined as non-specific binding, and the difference between total binding and non-specific binding of R(−)-α-methyl[^3H]histamine was defined as specific binding of R(−)-α-methyl[^3H]histamine. A fixed concentration (2 nM) of R(−)-α-methyl[^3H]histamine was reacted under the above conditions with each test drug at various concentrations to obtain an inhibition curve. The inhibition curve was used to determine the concentration (IC50) of each test drug required for 50% inhibition of R(−)-α-methyl[^3H]histamine binding.

male SD rats = experiment: Social recognition test; type: in vivo, rat; settings: compared to the vehicle group
Description: In this test, male SD rats were used. Adult rats were placed in a Perspex test box and acclimated for 30 minutes. Then, young rats were placed in the same test box, and the time taken for the adult rats to show exploratory behavior to the young rats during 5 minutes was measured (first exploratory behavior time). The exploratory behavior measured included sniffing, grooming, and closely following. After a 5 minute exploration, the adult and young rats were removed from the test box and returned to their respective home cages. After 90 minutes, the adult rats were placed again in the same test box as used in the first exploratory behavior test and acclimated for 30 minutes. Then, the same young rats as used in the first test were placed in the test box, and the time taken for the adult rats to show exploratory behavior to the young rats during 5 minutes was measured (second exploratory behavior time). The ratio of the second exploratory behavior time to the first exploratory behavior time (second/first exploratory behavior time ratio) was taken as an indicator of social recognition. The compound of the present invention was orally administered to the adult rats immediately after their first exploratory behavior. The compound of the present invention was dissolved in 0.03 N hydrochloric acid and tested at 0.1, 0.3 and 1 mg/kg.

SMILES	IC50 (human H3 receptor [1]) [nM]	IC50 (human H3 receptor [2]) [nM]	second/first exploratory behavior time ratio (male SD rats; 0.3 mg/kg orally to adult male SD rats immediately after first exploratory behavior)	second/first exploratory behavior time ratio (male SD rats; 1 mg/kg orally to adult male SD rats immediately after first exploratory behavior)
O=C(c1cnn(-c2ccc(OC3CCN(C4CCCC4)CC3)cc2)c1)N1CCCC1 [Compound No. 1, 1-cyclopentyl-4-{4-[4-(pyrrolidin-1-ylcarbonyl)-1H-pyrazol-1-yl]phenoxy}piperidine]	2.6	10.4	significantly reduced	significantly reduced
CC1CCCC1N1CCC(Oc2ccc(-n3cc(C(=O)N4CCCC4)cn3)cc2)CC1 (stereo not shown) [Compound No. 5, 1-(2-methylcyclopentyl)-4-{4-[4-(pyrrolidin-1-ylcarbonyl)-1H-pyrazol-1-yl]phenoxy}piperidine]		8.1		
O=C(c1cnn(-c2ccc(OC3CCN(C4CCC4)CC3)cc2)c1)N1CCCC1 [Compound No. 14, 1-cyclobutyl-4-{4-[4-(pyrrolidin-1-ylcarbonyl)-1-pyrazol-1-yl]phenoxy}piperidine]	1.6	7.1		
O=C(c1ccn(-c2ccc(OC3CCN(C4CCC4)CC3)cc2)n1)N1CCCC1 [Compound No. 68, {1-[4-(1-cyclobutylpiperidin-4-yloxy)phenyl]-1H-pyrazol-3-yl}pyrrolidin-1-yl-methanone]	1.2	7.1		
O=C(NC1CCCC1)c1cnn(-c2ccc(OC3CCN(C4CCC4)CC3)cc2)c1 [compound 16, 1-{4-[(1-cyclobutylpiperidin-4-yl)oxy]phenyl}-N-cyclopentyl-1H-pyrazole-4-carboxamide]	1.1	5.7		
O=C(NCC(F)(F)F)c1cnn(-c2ccc(OC3CCN(C4CCC4)CC3)cc2)c1 [compound 18, 1-{4-[(1-cyclobutylpiperidin-4-yl)oxy]phenyl}-N-(2,2,2-trifluoroethyl)-1H-pyrazole-4-carboxamide]		14.7		
O=C(NCC1CCCCC1)c1cnn(-c2ccc(OC3CCN(C4CCC4)CC3)cc2)c1 [compound 19, 1-{4-[(1-cyclobutylpiperidin-4-yl)oxy]phenyl}-N-(cyclohexylmethyl)-1H-pyrazole-4-carboxamide]		6.2		
